Results: ChEMBL document CHEMBL5465560, “Selectivity Literature for EUbOPEN Chemogenomic Library” (2024)

Key:
[1] = biological target: Cyclin-dependent kinase 2/cyclin A (Homo sapiens) (UniProt P24941+P20248+P78396); experiment: (§1) Selectivity interaction (Millipore kinase profiler) EUB0000124b CDK2; format: protein-complex assay; conditions: at 10 µM
[2] = biological target: Cyclin-dependent kinase 2/cyclin E (Homo sapiens) (UniProt P24864+P24941+O96020); experiment: as §1; format: protein-complex assay; conditions: at 10 µM
[3] = biological target: Fibroblast growth factor receptor 3 (Homo sapiens, UniProt P22607); experiment: Selectivity interaction (Millipore kinase profiler) EUB0000124b FGFR3; conditions: at 10 µM
[4] = biological target: T1, Mitogen-activated protein kinase kinase kinase 2 (Homo sapiens) (UniProt Q9Y2U5); experiment: Selectivity interaction (KinomeScan (DiscoverX)) EUB0000092b MAP3K2; conditions: at 10 µM
T1 sequence (whole entry): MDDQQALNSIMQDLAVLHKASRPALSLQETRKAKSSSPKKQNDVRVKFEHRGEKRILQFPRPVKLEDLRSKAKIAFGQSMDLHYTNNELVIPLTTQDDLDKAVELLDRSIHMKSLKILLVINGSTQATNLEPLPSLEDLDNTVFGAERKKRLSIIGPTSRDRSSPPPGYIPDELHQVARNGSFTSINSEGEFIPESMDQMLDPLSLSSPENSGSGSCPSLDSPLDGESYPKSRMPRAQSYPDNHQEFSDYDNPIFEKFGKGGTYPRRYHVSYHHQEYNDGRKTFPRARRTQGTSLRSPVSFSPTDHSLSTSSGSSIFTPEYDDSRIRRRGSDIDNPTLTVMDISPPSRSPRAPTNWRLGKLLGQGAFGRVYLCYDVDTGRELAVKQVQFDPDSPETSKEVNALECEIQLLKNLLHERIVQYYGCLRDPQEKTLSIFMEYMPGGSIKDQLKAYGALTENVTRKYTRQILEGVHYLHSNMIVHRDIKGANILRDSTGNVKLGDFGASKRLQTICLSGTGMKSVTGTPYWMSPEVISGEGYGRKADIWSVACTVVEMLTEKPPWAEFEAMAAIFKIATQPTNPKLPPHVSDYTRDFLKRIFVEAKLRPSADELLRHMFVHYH

[5] = biological target: Serine/threonine-protein kinase PAK 6 (Homo sapiens) (UniProt Q9NQU5); experiment: Selectivity interaction (KinomeScan (DiscoverX)) EUB0001619a PAK6; conditions: at 1 µM
Chain of Serine/threonine-protein kinase PAK 6 (Homo sapiens) (Q9NQU5 whole entry, looked up, the tested form may be a part): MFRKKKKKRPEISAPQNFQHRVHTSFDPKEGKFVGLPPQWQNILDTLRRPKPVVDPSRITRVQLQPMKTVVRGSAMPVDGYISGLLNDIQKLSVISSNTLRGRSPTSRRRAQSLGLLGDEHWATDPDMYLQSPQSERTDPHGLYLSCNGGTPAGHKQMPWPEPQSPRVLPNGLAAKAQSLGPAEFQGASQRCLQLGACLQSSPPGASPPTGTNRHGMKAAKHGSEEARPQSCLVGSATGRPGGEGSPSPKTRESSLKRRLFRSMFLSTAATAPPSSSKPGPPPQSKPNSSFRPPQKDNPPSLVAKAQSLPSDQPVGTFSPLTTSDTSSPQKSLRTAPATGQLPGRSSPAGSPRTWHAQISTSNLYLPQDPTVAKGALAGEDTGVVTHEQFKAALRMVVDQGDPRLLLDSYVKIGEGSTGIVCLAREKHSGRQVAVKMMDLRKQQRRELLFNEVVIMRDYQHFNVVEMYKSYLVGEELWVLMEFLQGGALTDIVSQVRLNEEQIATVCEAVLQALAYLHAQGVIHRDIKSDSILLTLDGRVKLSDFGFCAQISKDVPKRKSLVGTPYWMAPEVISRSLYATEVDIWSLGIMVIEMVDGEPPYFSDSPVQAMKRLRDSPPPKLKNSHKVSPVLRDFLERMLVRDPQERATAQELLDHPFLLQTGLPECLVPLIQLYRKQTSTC

[6] = biological target: LIM domain kinase 1 (Homo sapiens) (UniProt P53667); experiment: Selectivity interaction (KinomeScan (DiscoverX)) EUB0000607a LIMK1; conditions: at 10 µM
[7] = biological target: T2, Tyrosine-protein kinase Tec (Homo sapiens) (UniProt P42680); experiment: Selectivity interaction (LanthaScreen Eu Kinase Binding Assay) EUB0001632a TEC; conditions: at 10 µM
T2 sequence (whole entry): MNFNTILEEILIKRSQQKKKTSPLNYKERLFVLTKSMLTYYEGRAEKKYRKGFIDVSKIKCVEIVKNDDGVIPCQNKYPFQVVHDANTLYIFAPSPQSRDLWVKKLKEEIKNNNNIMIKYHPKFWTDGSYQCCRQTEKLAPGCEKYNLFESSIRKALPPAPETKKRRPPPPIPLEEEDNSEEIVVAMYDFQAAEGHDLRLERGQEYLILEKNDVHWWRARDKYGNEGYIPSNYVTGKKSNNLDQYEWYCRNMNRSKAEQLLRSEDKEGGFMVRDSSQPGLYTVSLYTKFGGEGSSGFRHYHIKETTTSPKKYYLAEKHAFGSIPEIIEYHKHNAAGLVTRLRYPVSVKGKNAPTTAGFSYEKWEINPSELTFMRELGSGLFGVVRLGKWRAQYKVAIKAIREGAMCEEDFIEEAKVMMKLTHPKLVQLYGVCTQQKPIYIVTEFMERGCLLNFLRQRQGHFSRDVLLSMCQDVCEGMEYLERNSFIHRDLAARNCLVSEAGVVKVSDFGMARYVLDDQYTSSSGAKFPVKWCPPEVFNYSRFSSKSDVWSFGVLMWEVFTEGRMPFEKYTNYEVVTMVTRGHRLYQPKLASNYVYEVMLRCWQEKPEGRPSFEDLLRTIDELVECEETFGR

[8] = biological target: T3, Testis-specific serine/threonine-protein kinase 2 (Homo sapiens) (UniProt Q96PF2); experiment: Selectivity interaction (Kinase panel (Z-LYTE Assay)) EUB0001632a TSSK2; conditions: at 10 µM
T3 sequence (whole entry): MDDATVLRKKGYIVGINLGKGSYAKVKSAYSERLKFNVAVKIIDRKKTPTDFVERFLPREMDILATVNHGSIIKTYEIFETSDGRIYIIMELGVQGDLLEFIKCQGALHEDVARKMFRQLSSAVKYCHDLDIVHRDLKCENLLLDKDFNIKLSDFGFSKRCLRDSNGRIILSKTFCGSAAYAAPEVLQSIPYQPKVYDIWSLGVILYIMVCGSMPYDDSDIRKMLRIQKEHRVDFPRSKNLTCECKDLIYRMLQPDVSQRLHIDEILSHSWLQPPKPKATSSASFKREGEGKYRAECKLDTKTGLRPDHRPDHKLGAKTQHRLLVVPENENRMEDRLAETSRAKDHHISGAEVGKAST

[9] = test system: Hepatocyte growth factor receptor (Homo sapiens), P08581 [D1228H]; experiment: (§2) Selectivity interaction (ProQinase) EUB0000171b MET
[10] = test system: Hepatocyte growth factor receptor (Homo sapiens), P08581 [D1228N]; experiment: as §2
[11] = test system: Hepatocyte growth factor receptor (Homo sapiens), P08581 [F1200I]; experiment: as §2
[12] = test system: Hepatocyte growth factor receptor (Homo sapiens), P08581 [M1250T]; experiment: as §2
Chain of Hepatocyte growth factor receptor (Homo sapiens), P08581 [M1250T] (P08581 whole entry M1250T): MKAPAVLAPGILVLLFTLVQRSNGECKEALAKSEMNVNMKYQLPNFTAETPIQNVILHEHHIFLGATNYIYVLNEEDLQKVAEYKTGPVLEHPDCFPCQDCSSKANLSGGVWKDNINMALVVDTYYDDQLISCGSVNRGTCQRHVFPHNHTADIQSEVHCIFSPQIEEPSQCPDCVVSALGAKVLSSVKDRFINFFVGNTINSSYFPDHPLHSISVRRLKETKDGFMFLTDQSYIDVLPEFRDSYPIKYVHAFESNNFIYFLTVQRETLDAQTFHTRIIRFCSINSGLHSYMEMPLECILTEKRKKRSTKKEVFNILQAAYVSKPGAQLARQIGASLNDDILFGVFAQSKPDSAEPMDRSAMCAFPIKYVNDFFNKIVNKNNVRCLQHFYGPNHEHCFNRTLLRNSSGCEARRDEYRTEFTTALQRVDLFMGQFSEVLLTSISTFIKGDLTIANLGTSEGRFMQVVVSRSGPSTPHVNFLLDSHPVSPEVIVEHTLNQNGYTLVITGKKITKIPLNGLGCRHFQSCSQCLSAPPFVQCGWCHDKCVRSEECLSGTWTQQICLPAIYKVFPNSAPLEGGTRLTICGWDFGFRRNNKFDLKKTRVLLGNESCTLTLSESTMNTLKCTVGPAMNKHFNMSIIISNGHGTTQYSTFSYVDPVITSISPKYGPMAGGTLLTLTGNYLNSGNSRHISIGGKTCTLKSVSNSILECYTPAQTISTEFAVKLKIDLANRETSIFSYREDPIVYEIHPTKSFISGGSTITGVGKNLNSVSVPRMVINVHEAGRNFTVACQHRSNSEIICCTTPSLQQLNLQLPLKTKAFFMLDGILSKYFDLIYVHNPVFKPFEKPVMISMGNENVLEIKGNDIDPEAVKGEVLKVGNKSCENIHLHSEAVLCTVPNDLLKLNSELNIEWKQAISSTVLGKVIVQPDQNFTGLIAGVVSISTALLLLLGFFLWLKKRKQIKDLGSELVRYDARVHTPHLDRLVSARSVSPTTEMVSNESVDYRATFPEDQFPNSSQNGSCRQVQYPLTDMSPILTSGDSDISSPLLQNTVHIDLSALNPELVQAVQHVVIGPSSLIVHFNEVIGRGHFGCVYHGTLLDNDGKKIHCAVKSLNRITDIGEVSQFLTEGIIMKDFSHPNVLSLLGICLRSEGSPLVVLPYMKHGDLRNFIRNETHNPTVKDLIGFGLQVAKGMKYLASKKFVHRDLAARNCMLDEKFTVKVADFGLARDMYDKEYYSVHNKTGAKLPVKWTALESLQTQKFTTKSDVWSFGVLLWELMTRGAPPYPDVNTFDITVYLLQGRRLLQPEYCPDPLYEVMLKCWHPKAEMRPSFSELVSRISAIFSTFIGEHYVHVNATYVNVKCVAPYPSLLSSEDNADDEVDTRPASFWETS

[13] = test system: Hepatocyte growth factor receptor (Homo sapiens), P08581 [Y1230A]; experiment: as §2
[14] = test system: Hepatocyte growth factor receptor (Homo sapiens), P08581 [Y1230C]; experiment: as §2
[15] = test system: Hepatocyte growth factor receptor (Homo sapiens), P08581 [Y1230D]; experiment: as §2
[16] = test system: Hepatocyte growth factor receptor (Homo sapiens), P08581 [Y1230H]; experiment: as §2
Chain of Hepatocyte growth factor receptor (Homo sapiens), P08581 [Y1230H] (P08581 whole entry Y1230H): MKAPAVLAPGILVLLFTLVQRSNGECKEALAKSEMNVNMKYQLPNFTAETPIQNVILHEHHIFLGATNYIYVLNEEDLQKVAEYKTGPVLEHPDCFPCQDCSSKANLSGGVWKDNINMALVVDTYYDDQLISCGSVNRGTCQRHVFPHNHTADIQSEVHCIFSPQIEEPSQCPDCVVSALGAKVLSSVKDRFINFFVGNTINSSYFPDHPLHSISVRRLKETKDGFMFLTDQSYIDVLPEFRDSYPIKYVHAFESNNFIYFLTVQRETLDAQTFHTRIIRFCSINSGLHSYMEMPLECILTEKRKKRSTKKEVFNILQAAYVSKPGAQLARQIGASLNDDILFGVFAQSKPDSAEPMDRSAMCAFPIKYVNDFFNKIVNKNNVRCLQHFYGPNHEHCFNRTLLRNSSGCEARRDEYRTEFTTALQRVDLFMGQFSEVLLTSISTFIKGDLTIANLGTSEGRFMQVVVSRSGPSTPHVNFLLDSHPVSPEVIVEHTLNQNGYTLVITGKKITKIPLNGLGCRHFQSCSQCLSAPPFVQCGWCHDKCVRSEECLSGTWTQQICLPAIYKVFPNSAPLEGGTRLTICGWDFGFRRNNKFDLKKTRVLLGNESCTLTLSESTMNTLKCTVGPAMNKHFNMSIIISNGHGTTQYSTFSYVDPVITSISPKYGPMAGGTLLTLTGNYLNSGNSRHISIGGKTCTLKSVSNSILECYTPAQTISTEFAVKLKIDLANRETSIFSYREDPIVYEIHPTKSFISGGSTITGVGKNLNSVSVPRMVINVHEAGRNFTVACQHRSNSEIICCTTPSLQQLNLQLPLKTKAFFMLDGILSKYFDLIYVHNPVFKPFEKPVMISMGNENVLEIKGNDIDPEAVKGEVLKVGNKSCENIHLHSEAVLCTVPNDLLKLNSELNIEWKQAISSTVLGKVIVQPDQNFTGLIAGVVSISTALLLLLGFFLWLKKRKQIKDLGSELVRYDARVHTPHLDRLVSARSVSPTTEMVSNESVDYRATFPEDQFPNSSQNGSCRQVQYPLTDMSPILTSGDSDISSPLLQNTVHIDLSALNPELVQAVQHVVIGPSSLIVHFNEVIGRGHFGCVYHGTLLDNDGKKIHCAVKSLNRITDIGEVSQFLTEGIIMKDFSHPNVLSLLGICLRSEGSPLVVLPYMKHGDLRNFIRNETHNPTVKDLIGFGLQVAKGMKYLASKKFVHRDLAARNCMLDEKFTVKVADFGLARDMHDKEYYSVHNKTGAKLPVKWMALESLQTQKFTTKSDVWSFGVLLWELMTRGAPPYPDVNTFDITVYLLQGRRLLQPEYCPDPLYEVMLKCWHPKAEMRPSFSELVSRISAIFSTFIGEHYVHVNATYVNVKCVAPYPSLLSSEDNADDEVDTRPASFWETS

[17] = test system: Hepatocyte growth factor receptor (Homo sapiens), P08581 [Y1235D]; experiment: as §2
Chain of Hepatocyte growth factor receptor (Homo sapiens), P08581 [Y1235D] (P08581 whole entry Y1235D): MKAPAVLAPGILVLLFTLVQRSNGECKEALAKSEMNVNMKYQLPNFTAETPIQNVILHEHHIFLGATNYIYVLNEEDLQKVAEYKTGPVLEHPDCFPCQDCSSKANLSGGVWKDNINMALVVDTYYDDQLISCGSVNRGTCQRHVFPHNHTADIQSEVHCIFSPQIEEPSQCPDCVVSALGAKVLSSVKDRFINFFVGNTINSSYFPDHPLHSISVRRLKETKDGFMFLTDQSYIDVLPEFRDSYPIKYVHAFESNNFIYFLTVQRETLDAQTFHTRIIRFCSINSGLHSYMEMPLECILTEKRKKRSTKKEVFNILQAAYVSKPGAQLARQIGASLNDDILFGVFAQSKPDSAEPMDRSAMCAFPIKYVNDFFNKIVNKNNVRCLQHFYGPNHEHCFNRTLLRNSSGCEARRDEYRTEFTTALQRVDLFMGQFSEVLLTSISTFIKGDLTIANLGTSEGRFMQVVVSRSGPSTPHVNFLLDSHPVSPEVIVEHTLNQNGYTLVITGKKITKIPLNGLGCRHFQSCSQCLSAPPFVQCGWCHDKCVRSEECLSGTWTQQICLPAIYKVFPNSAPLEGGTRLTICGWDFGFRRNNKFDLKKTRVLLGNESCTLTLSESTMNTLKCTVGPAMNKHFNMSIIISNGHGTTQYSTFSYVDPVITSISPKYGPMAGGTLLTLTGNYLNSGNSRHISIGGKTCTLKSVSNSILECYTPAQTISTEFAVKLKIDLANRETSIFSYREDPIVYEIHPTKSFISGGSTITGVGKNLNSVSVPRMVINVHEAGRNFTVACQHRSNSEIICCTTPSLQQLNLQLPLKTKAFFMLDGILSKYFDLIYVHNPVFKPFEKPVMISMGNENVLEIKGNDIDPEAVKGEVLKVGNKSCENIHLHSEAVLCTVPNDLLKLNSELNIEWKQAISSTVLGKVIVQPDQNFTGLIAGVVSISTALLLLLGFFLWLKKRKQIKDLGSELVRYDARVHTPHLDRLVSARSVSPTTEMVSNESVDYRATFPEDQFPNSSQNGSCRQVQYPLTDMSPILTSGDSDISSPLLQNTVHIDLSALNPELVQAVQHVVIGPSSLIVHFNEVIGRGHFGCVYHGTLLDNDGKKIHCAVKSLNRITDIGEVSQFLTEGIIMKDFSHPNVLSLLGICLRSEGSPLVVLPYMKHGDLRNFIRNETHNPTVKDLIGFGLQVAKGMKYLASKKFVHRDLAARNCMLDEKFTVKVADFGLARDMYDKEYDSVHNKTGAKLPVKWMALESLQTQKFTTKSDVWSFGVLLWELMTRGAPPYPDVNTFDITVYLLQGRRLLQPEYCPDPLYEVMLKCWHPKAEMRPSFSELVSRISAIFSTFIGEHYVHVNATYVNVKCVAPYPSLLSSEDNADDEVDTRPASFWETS

[18] = biological target: Hepatocyte growth factor receptor (Homo sapiens, UniProt P08581); experiment: as §2

## CC(=O)Nc1cccc(-n2c(=O)n(C3CC3)c(=O)c3c(Nc4ccc(I)cc4F)n(C)c(=O)c(C)c32)c1
[1]
  % of control: 101%
[2]
  % of control: 104%
[3]
  % of control: 98%

## CCC(=O)N1CCN(c2ccc(-n3c(=O)ccc4cnc5ccc(-c6cnc7ccccc7c6)cc5c43)cc2C(F)(F)F)CC1
[4]
  % of control: 62%

## N#Cc1cccc(-c2c[nH]c3ncnc(N4CCOCC4)c23)c1
[5]
  % of control: 78%

## CNC(=O)Nc1ccc(-c2nc(N3CC4CCC(C3)O4)c3cnn(C4CCC5(CC4)OCCO5)c3n2)cc1
[6]
  % of control: 95%

## Cn1cc(-n2cnc3c(NCc4nc5cc(Cl)c(Cl)cc5[nH]4)nc(N4CCOCC4)nc32)cn1
[7]
  % of inhibition: -15.6%
[8]
  % of control: -16.5%

## C=CC(=O)Nc1cccc(C(=O)Nc2ccc(Nc3cc(-c4[nH]c(SC)nc4C)ccn3)cc2)c1
[9]; at 1 µM
  % of control: 76%
[9]; at 5 µM
  % of control: 65%
[10]; at 1 µM
  % of control: 89%
[10]; at 5 µM
  % of control: 74%
[11]; at 1 µM
  % of control: 81%
[11]; at 5 µM
  % of control: 59%
[12]; at 1 µM
  % of control: 88%
[12]; at 5 µM
  % of control: 65%
[13]; at 1 µM
  % of control: 97%
[13]; at 5 µM
  % of control: 85%
[14]; at 1 µM
  % of control: 90%
[14]; at 5 µM
  % of control: 76%
[15]; at 1 µM
  % of control: 88%
[15]; at 5 µM
  % of control: 73%
[16]; at 1 µM
  % of control: 92%
[16]; at 5 µM
  % of control: 72%
[17]; at 1 µM
  % of control: 105%
[17]; at 5 µM
  % of control: 86%
[18]; at 1 µM
  % of control: 93%
[18]; at 5 µM
  % of control: 78%
